Converted amounts (≈) assume the structure as drawn. Ends that are not written are not given here.
What was measured:
[1] = Cargo release from nanogels by dialysis into 37° C. PBS; format: physicochemical; details: from N:P 10 nanogel carrier
Experimental: Loaded BNCs in DI water were injected into 300 kDa MWCO dialysis tubing. The tubing was submerged in a 30× (by volume) bath of PBS. At predetermined time points, multiple samples (n≥3) were collected from multiple locations throughout the bath. These samples were pooled and release was characterized in the same method used for assessing initial loading. Before each measurement, volume was adjusted to that of the initial bath to ensure concentration consistency.
Next, physiologic release of the encapsulated cargo was assessed by loading each nanogel formulation into a dialysis cassette and suspending it in a release media of 37° C. PBS. The concentration of loaded drug or GFP liberated to the dialysis media was then monitored as a function of time via UV-Vis or fluorescence spectroscopy, respectively. […] The majority of encapsulated protein (>75%) was retained within the nanogel carrier for the first 24 hours, followed by a rapid release phase that occurred between 24 and 72 hours.

MS S. aureus = assay: MIC of AMPs; format: cell-based; details: Gram +
P. aeruginosa = assay: MIC of AMPs; format: cell-based; details: Gram −
A. baumannii = assay: MIC of AMPs; format: cell-based; details: Gram −
S. enterica = assay: MIC of AMPs; format: cell-based; details: Gram −
H. influenzae = assay: MIC of AMPs; format: cell-based; details: Gram −
M. smegmatis [2] = assay: MIC of AMPs; format: cell-based; details: Gram +/−
MR S. aureus = details: Gram +
B. anthrax = details: Gram +
M. tuberculosis [3] = details: minimum concentration inhibiting 90% culture growth; cited from earlier work
M. tuberculosis [4] = details: Gram +/−
M. smegmatis [5] = details: minimum concentration inhibiting 90% culture growth; cited from earlier work
[6] = test system: THP-1 human macrophage control cell line; details: selectivity index at IC90, MTb over THP-1 human macrophage control cell line; cited from earlier work
A. baumannii (−) = assay: MIC of VAN, NGVAN, NG (broth dilution); format: cell-based; details: Acinetobacter baumannii, read-out: MIC of VAN
Experimental: (§1) 2× Dilutions of treatments in broth were plated into a U-bottom 96 well plate. Overnight cultures of Pseudomonas aeruginosa, Escherichia coli, Acinetobacter baumannii, Salmonella enterica and Staphylococcus aureus were incubated in cation adjusted Mueller-Hinton broth as advised by CLSI. Bacteria were diluted to an OD600 of 0.002 and plated in a 1:1 volume ratio with the treatments. These cultures were incubated overnight and MIC values were assessed by visual evaluation of growth inhibition when compared to untreated samples.

E. coli (−) = assay: MIC of VAN, NGVAN, NG (broth dilution); format: cell-based; details: Escherichia coli, drug or equivalent concentration of drug loaded into nanogels
Experimental: as §1

P. aeruginosa (−) = assay: MIC of VAN, NGVAN, NG (broth dilution); format: cell-based; details: Pseudomonas aeruginosa, read-out: MIC of VAN
Experimental: as §1

S. enterica (−) = assay: MIC of VAN, NGVAN, NG (broth dilution); format: cell-based; details: Salmonella enterica, drug or equivalent concentration of drug loaded into nanogels
Experimental: as §1

S. aureus (+) = assay: MIC of VAN, NGVAN, NG (broth dilution); format: cell-based, Staphylococcus aureus; details: S. aureus vs four gram-negative pathogens
Experimental: as §1

[7] = test system: panel of gram-negative and gram-positive bacterial pathogens; assay: Antibacterial activity against the whole panel; format: cell-based; details: four different gram-negative pathogens; highest concentration tested
Experimental: as §1
Next, the antibacterial activity of VAN-loaded nanogels were evaluated against a panel of gram-negative and gram-positive bacterial pathogens (Table 5). It is important to note that clinical use of VAN is generally excluded to gram-positive infections as most gram-negative pathogens are innately resistant to the drug. This is due to the thick outer membrane of gram-negative bacteria which prevents the large glycopeptide drug from diffusing into the cell wall and reaching its enzymatic target.

growing MTb = assay: KKL-35 viability of growing MTb cultures, plating assay; format: cell-based, Mycobacterium tuberculosis; details: FIG. 5A
[8] = test system: dormant persister cells (MTb); assay: KKL-35 viability of non-replicating MTb, Wayne model; format: cell-based, Mycobacterium tuberculosis; details: 3 days, FIG. 5B
physchem = details: water

Row | Compound | MIC (MS S. aureus) | MIC (P. aeruginosa) | MIC (A. baumannii) | MIC (S. enterica) | MIC (H. influenzae) | MIC (M. smegmatis [2]) | MIC (MR S. aureus) | MIC (B. anthrax) | IC90 (M. tuberculosis [3]) | MIC (M. tuberculosis [4]) | IC90 (M. smegmatis [5]) | SI90 [6] | also measured
1 | COc1cccc2c1C(=O)c1c(O)c3c(c(O)c1C2=O)C[C@@](O)(C(=O)CO)C[C@@H]3O[C@H]1C[C@H](N)[C@H](O)[C@H](C)O1 [DOX, Doxorubicin] | – | – | – | – | – | – | – | – | – | – | – | – | time to complete release [1]: 48 h; zero-order release rate [1]: ~4 %/hour
2 | RRWWRWVVW-NH2 [Entry 4] | 20 µM | 80 µM | 10 µM | 80 µM | 40 µM | 20 µM | 20 µM | 20 µM | 5.6 µM | 20 µM | 11.4 µM | 32.0 | –
3 | CN[C@H](CC(C)C)C(=O)N[C@H]1C(=O)N[C@@H](CC(N)=O)C(=O)N[C@H]2C(=O)N[C@H]3C(=O)N[C@H](C(=O)N[C@H](C(=O)O)c4cc(O)cc(O)c4-c4cc3ccc4O)[C@H](O)c3ccc(c(Cl)c3)Oc3cc2cc(c3O[C@@H]2O[C@H](CO)[C@@H](O)[C@H](O)[C@H]2O[C@H]2C[C@](C)(N)[C@H](O)[C@H](C)O2)Oc2ccc(cc2Cl)[C@H]1O [VAN, Vancomycin] | – | – | – | – | – | – | – | – | – | – | – | – | MIC (A. baumannii (−)): 144 µg/mL; MIC (E. coli (−)): 144 µg/mL; MIC (P. aeruginosa (−)): 144 µg/mL; MIC (S. enterica (−)): 144 µg/mL; times more effective in killing S. aureus than gram-negative pathogens (S. aureus (+)): > 30 times; concentration giving inhibition of bacterial growth [7]: 144 µg/mL; time to 90% drug release ([1]; first order kinetics): ≤ 4 h
4 | KRWWKWWRR-NH2 [Entry 3] | 80 µM | 20 µM | 80 µM | 80 µM | 80 µM | 20 µM | 80 µM | 80 µM | 3.1 µM | 10 µM | 4.9 µM | 51.2 | –
5 | H-KRWHWWRRHWVVW-NH2 [SMAS-1] | >80 µM | 50 µM | 50 µM | 80 µM | 80 µM | 5 µM | >80 µM | >80 µM | – | 3 µM | – | – | –
6 | H-WKWLKKWIK-NH2 [Entry 1] | >80 µM | 10 µM | 25 µM | 40 µM | 80 µM | 20 µM | >80 µM | 10 µM | 1.1 µM | 20 µM | 1.9 µM | 21.3 | –
7 | O=C(Nc1nnc(-c2ccc(F)cc2)o1)c1ccc(Cl)cc1 [KKL-35, 4-chloro-N-(5-(4-fluorophenyl)-1,3,4-oxadiazol-2-yl)benzamide] | – | – | – | – | – | – | – | – | – | – | – | – | IC towards growing MTb (growing MTb): < 1.6 µg/mL; IC towards dormant persister cells [8]: < 1.6 µg/mL; IC towards human HeLa cells (human HeLa cells): > 500 µg/mL; solubility (physchem): 500 µg/mL (≈ 1570 µM)
8 | ILRWKWRWWRWRR-NH2 [Entry 2, cationic antimycobacterial peptide, amidated C-terminus] | – | – | – | – | – | – | – | – | – | – | 2.4 µM | 21.3 | –

— patent US11458099B2, “Inhalable antimicrobial particles and methods of making the same” (The Penn State Research Foundation, priority 2017, dated 2022)
